What was measured:
Format in all cases: cell-based
[1] = tested on: T lymphocytes isolated from RyR163C mice; assay: Fura-2 intracellular calcium imaging in T lymphocytes from RyR163C mice; settings: for Δ1/Δ2 ratio: preincubated, fura-2
Description: (§1) FIGS. 3A and 3B show intracellular calcium measurements in T lymphocytes. […] Shown are average traces recorded from at least 20 cells in one representative experiment.

[2] = tested on: T lymphocytes isolated from control WT mice; assay: Fura-2 intracellular calcium imaging in T lymphocytes from wild-type mice; settings: SERCA blocker applied in about 0 mM extracellular calcium; WT cells, compared to 5×FAD and RyR163C
Description: as §1

[3] = tested on: T lymphocytes isolated from 5×FAD mice; assay: Fura-2 intracellular calcium imaging in T lymphocytes from 5×FAD mice; settings: SERCA blocker applied in about 0 mM extracellular calcium; 5×FAD T lymphocytes
Description: as §1

## O=C1CN(/N=C/c2ccc(-c3ccc([N+](=O)[O-])cc3)o2)C(O)=N1 [dantrolene]
[1]; dantrolene 50 μM
  basal intracellular calcium levels: reducing
  responses to thapsigargin: increasing
  Δ1/Δ2 ratio: reduced

## C/C=C(/C)C(=O)O[C@H]1C(C)=C2[C@H]([C@@H]1OC(=O)CCCCCCC)[C@@](C)(OC(C)=O)C[C@H](OC(=O)CCC)[C@@]1(O)[C@H]2OC(=O)[C@@]1(C)O [thapsigargin]
[1]; SERCA blocker applied in about 0 mM extracellular calcium
  intracellular calcium transients evoked (Δ2=F3−F2): barely detectable
[2]
  intracellular calcium transients evoked (Δ2=F3−F2): larger
[3]
  intracellular calcium transients evoked (Δ2=F3−F2): barely detectable

## ryanodine
[1]; ryanodine 800 μM
  basal intracellular calcium levels: reducing
  responses to thapsigargin: increasing
  Δ1/Δ2 ratio: reduced

Reference: patent US20210311075A1, “METHODS FOR DETECTING DISORDERS RELATED TO CALCIUM DISCHARGE FROM INTRACELLULAR STORES” (The Regents of the University of California, priority 2017, published 2021)
